Experimental data taken from US20130101632A1, “NANOPARTICULATE FORMULATIONS OF MITHRAMYCIN OR MITHRAMYCIN ANALOGUES FOR TREATING CANCER” (UNIVERSITY OF KENTUCKY RESEARCH FOUNDATION, priority 2011, published 2013).

Columns and labels:
[1] = tested on: A549 cells; assay: Cell toxicity assay in A549 cells (resazurin); assay type: cell-based, human
Method: The cytotoxic effects of four MTM analogue nanoparticulate formulations were investigated in comparison to free drugs. A549 cells were cultured as specified from ATCC at 37° C., 5% CO2. The cells were seeded on a 96 well plate (5,000 cells/well) and allowed to adhere for 24 hrs. After 24 hrs growth media were replaced with fresh media containing samples at differing concentrations. 1% DMSO (biotechnological grade) was used as a control vehicle to prepare free drug formulations for SK and SDK. Self-assembled and cross-linked micelles were used as nanoparticulate formulations for SK and SDK. The cells were exposed to samples for 72 hrs total (n=8). Cell viability was assessed using a resazurin assay that indicates mitochondrial metabolic activity in live cells. 10 μL of a 1 mM resazurin solution in PBS was added to the vehicle- and drug-treated cells at the end of the treatment period. Cell viability was determined three hours later by reading the fluorescence at 560 nm (Ex)/590 nm (Em). The fluorescence signals were quantified using a Spectramax M5 plate reader (Molecular Devices) equipped with a SoftMaxPro software. Cytotoxicity was determined by calculating the half maximal inhibitory concentration (IC50) of each sample.

[2] = tested on: HT29 colon cancer cells; assay: In vivo subcutaneous tumor model; conditions: 2 mg/kg, 100 μL injection, after 18 days, HT29 subcutaneous tumors in nude mice
Method: Subcutaneous tumor models were established with HT29 colon cancer cells. Nude/nude mice at 8 weeks old were injected with 3×10^6 HT29 cells subcutaneously in the right flank. The tumors were then allowed to grow to a volume of ˜130 mm^3. Once the tumors reached a volume of 130 mm^3 the mice were injected with 100 μL of the desired treatment. For the control group the mice were injected with PBS. For the SK free drug and SK CNA groups the final treatment dose was 7 mg/kg and an injection volume of 100 μL. For SDK free drug and SDK CNA the final treatment dose was 2 mg/kg with an injection volume of 100 μL. Once the mice were treated the tumor volume and body mass were measured for 18 days. The groups were formed with an N=6 mice. The tumor volume was calculated by the formula 0.5(l)×w2.

[3] = tested on: HT29 cells; assay: Cell toxicity assay in HT29 cells (resazurin); assay type: cell-based; conditions: 72 hrs exposure
Method: The in vitro cytotoxic effects of the MTM loaded CNAs (Crosslinked Nano Assemblies) were investigated in comparison to free drugs. HT29 cells were cultured as specified from ATCC at 37° C., 5% CO2. The cells were seeded on a 96 well plate (5,000 cells/well) and allowed to adhere for 24 hrs. After 24 hrs growth media were replaced with fresh media containing drug and CNA samples at differing concentrations. Free drug formulations for SK and SDK and CNA formulations were prepared in filtered DI water. The cells were exposed to samples for 72 hrs total (n=4). Cell viability was assessed using a resazurin assay that indicates mitochondrial metabolic activity in live cells. 10 μL of a 1 mM resazurin (7-Hydroxy-3H-phenoxazin-3-one 10-oxide) solution in PBS was added to the vehicle- and drug-treated cells at the end of the treatment period. Cell viability was determined three hours later by reading the fluorescence at 560 nm (Ex)/590 nm (Em). The fluorescence signals were quantified using a Spectramax® M5 plate reader (Molecular Devices) equipped with a SoftMaxPro® software. Cytotoxicity was determined by calculating the half maximal inhibitory concentration (IC50) of each sample.

Question: Which results are given for CO[C@H](C(=O)C(C)=O)[C@@H]1Cc2cc3cc(OC4C[C@@H](OC5C[C@@H](O)[C@H](O)C(C)O5)[C@H](O)C(C)O4)c(C)c(O)c3c(O)c2C(=O)[C@H]1OC1C[C@@H](OC2C[C@@H](OC3C[C@](C)(O)[C@H](O)C(C)O3)[C@@H](O)C(C)O2)[C@H](O)C(C)O1 (stereo partly shown) [SDK]?
Answer: IC50 ([1]; 72 hrs exposure, resazurin assay): 93 ± 35 nM; Relative efficacy to free drug ([1]; relative to free drug = 1.00): 1.00; relative tumor regression as compared to the control [2]: 48%; IC50 [3]: 216 ± 4 nM
